Patent US20210161788A1, “Anti-Blue Light Dermal Topical Composition and Applications Thereof” (Taiwan AC Scientific Inc., priority 2019, published 2021)

Key:
[1] = Penetration rates of UV, blue light and visual light and shading rate of blue light, UV/blue-light detector; type: physicochemical; conditions: for Penetration rate UV: 380-400 nm; for Penetration rate BL: 405-425 nm; for Penetration rate VL: 520-540 nm; for Shading rate of blue light: VL penetration minus BL penetration
Description: Solutions with different concentrations prepared by terephthalylidene dicamphor sulfonic acid are tested with a UV/blue-light detector (Actor-Mater Co., Ltd.) for penetration rates of ultraviolet (UV), blue light (BL) and visual light (VL). The shading rate of blue light is calculated by the formula as follows:
Shading rate of blue light (%)=penetration rate of visual light−penetration rate of blue light
where wavelength ranges of UV, blue light and visual light tested with a UV/blue-light detector (Actor-Mater Co., Ltd.) are 380-400 nm, 405-425 nm and 520-540 nm, respectively.
The 3% terephthalylidene dicamphor sulfonic acid solution (B) and the 3% rutoside solution (C) are prepared by ingredients as shown in formulas in Table 4. Referring to test modes in Embodiment 1 to Embodiment 3, the anti-blue light effects and the shading rates of blue light for solutions (B) and (C) are tested, respectively.
The synergistic effect of rutoside and terephthalylidene dicamphor sulfonic acid on anti-blue light is explored in this embodiment. Prepared by rutoside and terephthalylidene dicamphor sulfonic acid, the mixed solutions with different concentrations are tested for shading rates of blue light according to the test mode as shown in Embodiment 3.

Human Skin = experiment: Evaluation of the effect on human skin by the Janus facial analysis system; type: in vivo; conditions: 3% solution applied on skin
Description: Evaluation method: A subject who has applied the 3% terephthalylidene dicamphor sulfonic acid solution on skin surfaces for seven straight days is tested by the Janus facial analysis system for status change of their skin.

CC1(C)C2CCC1(CS(=O)(=O)O)C(=O)C2=Cc1ccc(C=C2C(=O)C3(CS(=O)(=O)O)CCC2C3(C)C)cc1 (stereo in doubt) [terephthalylidene dicamphor sulfonic acid]
Penetration rate UV ([1]; 0.5% (W/W) solution): 3.00 ± 0.00%
Penetration rate BL ([1]; 0.5% (W/W) solution): 87.33 ± 0.58%
Penetration rate VL ([1]; 0.5% (W/W) solution): 99.00 ± 0.00%
Shading rate of blue light ([1]; 0.5% (W/W) solution): 11.67 ± 0.58%
Penetration rate UV ([1]; 1% (W/W) solution): 1.67 ± 0.58%
Penetration rate BL ([1]; 1% (W/W) solution): 77.00 ± 1.00%
Penetration rate VL ([1]; 1% (W/W) solution): 98.67 ± 0.58%
Shading rate of blue light ([1]; 1% (W/W) solution): 21.67 ± 0.58%
Penetration rate UV ([1]; 3% (W/W) solution): 0.00 ± 0.00%
Penetration rate BL ([1]; 3% (W/W) solution): 50.00 ± 1.00%
Penetration rate VL ([1]; 3% (W/W) solution): 97.33 ± 0.58%
Shading rate of blue light ([1]; 3% (W/W) solution): 47.33 ± 0.58%
Penetration rate UV ([1]; 5% (W/W) solution): 0.00 ± 0.00%
Penetration rate BL ([1]; 5% (W/W) solution): 42.33 ± 0.58%
Penetration rate VL ([1]; 5% (W/W) solution): 97.33 ± 0.58%
Shading rate of blue light ([1]; 5% (W/W) solution): 55.00 ± 1.00%
Penetration rate UV ([1]; 10% (W/W) solution): 0.00 ± 0.00%
Penetration rate BL ([1]; 10% (W/W) solution): 26.33 ± 1.15%
Penetration rate VL ([1]; 10% (W/W) solution): 95.00 ± 1.00%
Shading rate of blue light ([1]; 10% (W/W) solution): 68.67 ± 0.58%
Penetration rate UV ([1]; 20% (W/W) solution): 0.00 ± 0.00%
Penetration rate BL ([1]; 20% (W/W) solution): 16.00 ± 1.00%
Penetration rate VL ([1]; 20% (W/W) solution): 93.00 ± 1.00%
Shading rate of blue light ([1]; 20% (W/W) solution): 77.00 ± 0.00%
Average shading rate of blue light ([1]; content of anti-blue light substances in a solution 1%): 22%
Average shading rate of blue light ([1]; content of anti-blue light substances in a solution 3%): 47%
Reduction of the total average of fine wrinkles (Human Skin; after 7 straight days vs before use): 7%
Count of melanin pigmentations at the forehead (Human Skin; after 7 straight days, before use 42): 25
Count of melanin pigmentations at one side of the face (Human Skin; after 7 straight days, before use 49): 42
Count of melanin pigmentations at cheeks (Human Skin; after 7 straight days, before use 56): 44
Fine wrinkles under eyelids (Human Skin; after 7 straight days, before use 57): 54
Total average fine wrinkles (Human Skin; after 7 straight days, before use 82): 75
Crow's feet (Human Skin; after 7 straight days, before use 100): 88
